Measurements published in patent US20110293600A1, “Anticancer Composition Comprising Antitumor Agent and Substance Having Inhibitory Effects on L1CAM Activity and Expression” (KOREA RESEARCH INSTITUTE OF BIOSCIENCE AND BIOTECHNOLOGY, priority 2008, published 2011).

Assays:
[1] = tested on: L1CAM mRNA in cholangiocarcinoma cell lines (SCK); test: Detection of mRNA expression of L1CAM by RT-PCR; assay type: cell-based; details: SCK transduced with siRNA, cultured 72 hours; compared to siRNA non-specific for L1CAM; FIG. 5(A) upper
Experimental: In order to knock down expression of L1CAM in cholangiocarcinoma cell lines (SCK), the cells were transduced with siRNA (5′-[…]-3′, Sequence ID No. 1) specific for L1CAM and siRNA (5′-CAGTCGCGTTTGCGACTGG-3′, Sequence ID No. 2) non-specific for L1CAM and then cultured for 72 hours. In order to isolate the total RNA of the cultured cholangiocarcinoma cells, the cells were treated with a 1 ml trizol reagent (Invitrogen, Inc.) at room temperature for 5 minutes. 0.2 ml of chloroform was added to the cells, and the mixture was violently shaken about 15 times and allowed to react at room temperature for 3 minutes. The resulting solution was centrifuged at 4° C. and 14,000 rpm for […], 400 μl of the supernatant was transferred to another tube and the same amount of isopropanol was added to the residue and the mixture was allowed to react at room temperature for 10 minutes. The reaction solution was centrifuged at 4° C. at 14,000 rpm for 15 minutes, the supernatant was discarded, and the residue was washed with 75% ethanol. oligo(d)T, dNTP, RNase inhibitor and reverse transcriptase were added to 2 ug of the RNA thus extracted and the mixture was allowed to react at 42° C. for one hour to synthesize cDNA. […]

[2] = tested on: L1CAM protein in cholangiocarcinoma cell lines (SCK); test: Detection of protein expression of L1CAM using Western blotting; assay type: cell-based; details: SCK transduced with siRNA, cultured 72 hours; compared to siRNA non-specific for L1CAM; FIG. 5(A) lower
Experimental: In order to knock down expression of L1CAM in cholangiocarcinoma cell lines (SCK), the cells were transduced with siRNA (5′-[…]-3′, Sequence ID No. 1) specific for L1CAM and siRNA (5′-CAGTCGCGTTTGCGACTGG-3′, Sequence ID No. 2) non-specific for L1CAM and then cultured for 72 hours and expression of L1CAM was detected in protein level using Western blotting. In order to isolate the total protein of cell lines treated with siRNA, the cell lines were treated with 500 μl of cell lysis solution (RIPA buffer), and the proteins thus obtained were isolated in 10% SDS-PAGE, transferred to a nitrocellulose membrane and subjected to Western blotting. The nitrocellulose membrane was allowed to react in PBST (PBS+0.1% Tween 20) buffer containing 5% skim milk for one hour and washed two or more times with the PBST buffer. Anti-L1CAM antibody (A10-A3) was added as a primary antibody to the reacted nitrocellulose membrane, followed by allowing to react for 2 hours. The resulting membrane was washed with the PBST buffer five times and reacted with anti-mouse IgG HRP (horseradish peroxidase) conjugate (1:5000 Sigma) for one hour. The reaction solution was washed five times with the PBST buffer and was colored with enhanced chemiluminescence reagent (ECL) (Amersham biosciences) as a detection reagent.

[3] = tested on: SCK cells subcutaneously transplanted; test: Cancer growth in mouse xenograft model; assay type: in vivo, Nude mice Balb/c nu/nu; details: Example 3, FIG. 2, A10-A3 10 mg/kg three times per week, cisplatin 3 mg/kg twice per week
Experimental: Nude mice Balb/c nu/nu were purchased via Central Lab. Animal Inc. from Japan SLC. The mice were 6 to 8 weeks old, weighed 18 to 22 g and acclimated for one week in a lab of the Korean Research Institute of Bioscience and Biotechnology. SCK cells (3×10^7) were subcutaneously transplanted into 40 mice, and were randomly divided into four groups when grown to a tumor mass having a size of 100 to 200 mm^3 after one week. A10-A3 was administered to the mice at a dose of 10 mg/kg three times per week. Cisplatin was administered to the mice at a dose of 3 mg/kg twice per week. As the control group, mIgG was administered at the same level, instead of A10-A3 and saline was administered at the same level, instead of cisplatin. The weight of nude mice and tumors were measured three times per week.

Question: “siRNA specific for L1CAM: siRNA (5′-GCCAATGCCTACATCTACGTT-3′, Sequence ID No. 1) specific for L1CAM (listed as DNA, chemistry not given here)” was tested. Which “total amount of L1CAM expressed (mRNA)” value [1] did it give?
Answer: decrease

Question: And the “total amount of protein expressed (L1CAM)” value [2]?
Answer: decrease

Question: How did the “proliferation inhibition (tumor growth)” value [3] turn out when `N.N.[Cl][Pt][Cl]` [cisplatin] was run?
Answer: about 30%
